Data on one molecule can be found in article PMC7177888, “Aryl-4,5-dihydro-1H-pyrazole-1-carboxamide Derivatives Bearing a Sulfonamide Moiety Show Single-digit Nanomolar-to-Subnanomolar Inhibition Constants against the Tumor-associated Human Carbonic Anhydrases IX and XII” (International Journal of Molecular Sciences, 2020).

Molecules are shown by their SMILES.

Holding throughout (assay): stopped-flow CO2 hydrase assay
Assay type in all cases: biochemical

Assay [1] has as its target T1, CA XII (Homo sapiens, UniProt O43570).
T1 construct: gene CA12; recombinant, obtained in-house
The procedure, abridged:
(§1)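 In-house recombinant human carbonic anhydrase isoforms were tested for CO2 hydration on an Applied Photophysics stopped-flow instrument, using 20 mM Hepes (pH 7.5), 20 mM Na2SO4 and 0.2 mM phenol red, with readings at 557 nm over 10–100 s and CO2 at 1.7–17 mM. Enzyme and inhibitor were preincubated for 15 min at room temperature, with dilutions made from 0.1 mM aqueous stocks down to 0.01 nM. Inhibition constants (Ki) were obtained by nonlinear least-squares fitting with the Cheng–Prusoff equation from initial rates corrected for the uncatalysed reaction. Each value is the mean of at least three determinations.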

The target of assay [2] is T2, CA I (Homo sapiens, UniProt P00915).
T2 construct: gene CA1; recombinant, obtained in-house
T2 sequence (P00915 2-261): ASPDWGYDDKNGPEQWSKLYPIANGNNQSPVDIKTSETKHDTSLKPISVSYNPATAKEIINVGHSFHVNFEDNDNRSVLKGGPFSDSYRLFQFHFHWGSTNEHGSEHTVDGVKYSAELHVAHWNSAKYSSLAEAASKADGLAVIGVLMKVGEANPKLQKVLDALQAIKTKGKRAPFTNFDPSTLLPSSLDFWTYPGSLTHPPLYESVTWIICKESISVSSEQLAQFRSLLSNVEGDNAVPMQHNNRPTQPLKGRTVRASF
Put shortly: as §1

The target in assay [3] is T3, CA VII (Homo sapiens, UniProt P43166).
T3 construct: gene CA7; recombinant, obtained in-house
T3 sequence (P43166 whole entry): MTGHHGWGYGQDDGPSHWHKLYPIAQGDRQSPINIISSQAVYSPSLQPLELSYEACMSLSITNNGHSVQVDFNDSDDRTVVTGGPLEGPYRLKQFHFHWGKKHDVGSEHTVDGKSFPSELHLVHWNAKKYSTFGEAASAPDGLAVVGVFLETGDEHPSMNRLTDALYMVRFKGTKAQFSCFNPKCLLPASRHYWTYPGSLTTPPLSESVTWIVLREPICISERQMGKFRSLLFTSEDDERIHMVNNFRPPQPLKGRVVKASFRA
The procedure, abridged:
as §1

The target of assay [4] is T4, CA II (Homo sapiens, UniProt P00918).
T4 construct: gene CA2; recombinant, obtained in-house
Put shortly:
as §1

For assay [5], the target named is T5, CA IX (Homo sapiens, UniProt Q16790).
T5 construct: gene CA9; recombinant, obtained in-house
To be noted: read-out: KI (nM) / CA IX. Put shortly:
as §1

T1 sequence (O43570 25-354): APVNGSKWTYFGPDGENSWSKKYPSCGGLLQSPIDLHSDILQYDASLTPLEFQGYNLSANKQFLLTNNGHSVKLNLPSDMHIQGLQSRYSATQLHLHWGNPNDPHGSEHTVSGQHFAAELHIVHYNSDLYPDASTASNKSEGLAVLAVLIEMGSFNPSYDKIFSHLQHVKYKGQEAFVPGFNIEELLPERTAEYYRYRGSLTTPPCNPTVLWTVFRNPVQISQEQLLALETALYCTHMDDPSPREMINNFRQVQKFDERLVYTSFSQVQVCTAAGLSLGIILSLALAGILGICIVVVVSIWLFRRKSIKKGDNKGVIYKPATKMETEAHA

On to `NS(=O)(=O)c1ccc(NC(=O)N2N=C(c3ccc(Br)cc3)CC2c2ccc(F)cc2)cc1` (centres unmarked) [compound 25, 3-(4-Bromophenyl)-5-(4-flurophenyl)-4,5-dihydro-pyrazole-1-carboxylic acid (4-sulfamoyl-phenyl)-amide], for which the Ki in assay [1] was determined as 2.4 nM; in assay [2], 38.2 nM; in assay [3], 2.6 nM; in assay [4], 5.5 nM; in assay [5] it was 1.4 nM.
